In ChEMBL document CHEMBL1201862, “PubChem BioAssay data set” (2004):
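In this assay, cells in 96-well plates receive the compound at five concentrations for 48 hours. Endpoints are linearly interpolated between the surrounding concentrations. GI50 is the concentration that inhibits growth by half.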 Activity calls are given as the source filed them. Rule as the data show it: active = GI50 up to about 1.1 µM and inactive = higher.

Assays:
Experiment in all cases: NCI anticancer screen, dose series, 48 h
T47D = test system: T47D
MOLT-4 = test system: MOLT-4
DU-145 = test system: DU-145
SNB-75 = test system: SNB-75
HOP-92 = test system: HOP-92
TK-10 = test system: TK-10
NCI-H522 = test system: NCI-H522
HCC 2998 = test system: HCC 2998
M14 = test system: M14
A498 = test system: A498
UACC-257 = test system: UACC-257
OVCAR-3 = test system: OVCAR-3
MDA-N = test system: MDA-N
SK-MEL-28 = test system: SK-MEL-28
KM12 = test system: KM12
NCI-H460 = test system: NCI-H460
UO-31 = test system: UO-31
SF-295 = test system: SF-295
SK-MEL-2 = test system: SK-MEL-2
SK-MEL-5 = test system: SK-MEL-5

| Structure (SMILES) | GI50 (T47D) | GI50 (MOLT-4) | GI50 (DU-145) | GI50 (SNB-75) | GI50 (HOP-92) | GI50 (TK-10) | GI50 (NCI-H522) | GI50 (HCC 2998) | GI50 (M14) | GI50 (A498) | GI50 (UACC-257) | GI50 (OVCAR-3) | GI50 (MDA-N) | GI50 (SK-MEL-28) | GI50 (KM12) | GI50 (NCI-H460) | GI50 (UO-31) | GI50 (SF-295) | GI50 (SK-MEL-2) | GI50 (SK-MEL-5) |
| --- | --- | --- | --- | --- | --- | --- | --- | --- | --- | --- | --- | --- | --- | --- | --- | --- | --- | --- | --- | --- |
| CC(NNC(=O)CC(=O)N(C(=O)c1ccccc1)c1ccc(Cl)cc1)c1cc2ccccc2oc1=O (stereo not given) | > 10 µM (inactive) | > 10 µM (inactive) | > 10 µM (inactive) | > 10 µM (inactive) | > 10 µM (inactive) | > 10 µM (inactive) | > 10 µM (inactive) | > 10 µM (inactive) | > 10 µM (inactive) | > 10 µM (inactive) | > 10 µM (inactive) | > 10 µM (inactive) | > 10 µM (inactive) | > 10 µM (inactive) | > 10 µM (inactive) | > 10 µM (inactive) | 0.0995 µM (active) | > 10 µM (inactive) | > 10 µM (inactive) | > 10 µM (inactive) |
| COC(=O)/C(=C/c1ccc(OC)cc1)c1cc(OC)c(OC)c(OC)c1 | 7.13 µM (inactive) | 1.44 µM (inactive) | 1.69 µM (inactive) | 1.29 µM (inactive) | 3.98 µM (inactive) | 5.62 µM (inactive) | 0.614 µM (active) | 10.7 µM (inactive) | 1.06 µM (active) | 7.05 µM (inactive) | 7.83 µM (inactive) | 0.527 µM (active) | 0.133 µM (active) | 5.89 µM (inactive) | 0.521 µM (active) | 5.11 µM (inactive) | 5.46 µM (inactive) | 0.706 µM (active) | 3.18 µM (inactive) | 0.569 µM (active) |
| C[N+]1([O-])C2CCC1CC(OC(=O)C(CO)c1ccccc1)C2 (stereo not given) | > 100 µM (inactive) | > 100 µM (inactive) | > 100 µM (inactive) | > 100 µM (inactive) | > 63.2 µM (inactive) | > 100 µM (inactive) | > 100 µM (inactive) | > 100 µM (inactive) | > 100 µM (inactive) | > 100 µM (inactive) | > 100 µM (inactive) | > 100 µM (inactive) | > 100 µM (inactive) | > 100 µM (inactive) | > 100 µM (inactive) | > 100 µM (inactive) | > 100 µM (inactive) | > 100 µM (inactive) | > 100 µM (inactive) | > 100 µM (inactive) |
| CN(C)CC1CCC/C(=C\c2ccc(Cl)c(Cl)c2)C1=O (stereo not given) | 2.31 µM (inactive) | 1.44 µM (inactive) | 10.9 µM (inactive) | 7.41 µM (inactive) | 4.38 µM (inactive) | 3.31 µM (inactive) | 2.13 µM (inactive) | 10.7 µM (inactive) | 3.83 µM (inactive) | 13.9 µM (inactive) | 7.71 µM (inactive) | 4.31 µM (inactive) | 3.42 µM (inactive) | 5.14 µM (inactive) | 1.84 µM (inactive) | 9.2 µM (inactive) | 2.74 µM (inactive) | 12.4 µM (inactive) | 6.52 µM (inactive) | 9.82 µM (inactive) |
| Cc1cc2c(cc1C)[n+]([O-])c(C(=O)/C=C/c1ccccc1[N+](=O)[O-])c(C)[n+]2[O-] | > 77.3 µM (inactive) | > 100 µM (inactive) | > 100 µM (inactive) | 11.1 µM (inactive) | 34.4 µM (inactive) | 49.9 µM (inactive) | 28.6 µM (inactive) | 71.6 µM (inactive) | 74.6 µM (inactive) | 61.2 µM (inactive) | 75.9 µM (inactive) | 50.7 µM (inactive) | > 96.2 µM (inactive) | 71.4 µM (inactive) | > 100 µM (inactive) | 71.6 µM (inactive) | 99.5 µM (inactive) | 36.3 µM (inactive) | 41 µM (inactive) | > 100 µM (inactive) |
| CN(C)c1ccc(/C=C(\NC(=O)c2ccccc2)C(=O)Nc2cccc(C(=O)NCCCO)c2)cc1 | > 100 µM (inactive) | > 100 µM (inactive) | > 100 µM (inactive) | > 100 µM (inactive) | > 100 µM (inactive) | > 100 µM (inactive) | > 100 µM (inactive) | > 100 µM (inactive) | > 100 µM (inactive) | > 100 µM (inactive) | > 100 µM (inactive) | > 100 µM (inactive) | > 100 µM (inactive) | > 100 µM (inactive) | > 100 µM (inactive) | > 100 µM (inactive) | > 100 µM (inactive) | > 100 µM (inactive) | > 100 µM (inactive) | > 100 µM (inactive) |
